One data set deals with eIF-2-alpha kinase GCN2 (Homo sapiens, UniProt Q9P2K8). Kind of data set: Inhibition of GCN2 (unknown origin) using GFP--fused eIF2alpha as substrate preincubated for 20 mins followed by substrate and ATP addition measured after 90 mins by TR-FRET assay. (TR-FRET usually uses a lanthanide donor and a delayed reading to cut background.)
Data set [1] has as its target Tyrosine-protein kinase SYK (Homo sapiens, UniProt P43405). Kind of data set: Inhibition of N-terminal GST-tagged human SYK expressed in baculovirus infected Sf9 insect cells using Biotin-Aha-Aha-KEDPDYEWPSAKK as substrate after 90 mins by flash plate assay.
Data set [2] deals with Mitogen-activated protein kinase kinase kinase kinase 1 (Homo sapiens, UniProt Q92918). Kind of data set: Inhibition of N-terminal GST-tagged human HPK1 (1 to 346 residues) after 30 mins in presence of ATP by indirect ELISA. For orientation: In an ELISA, binding on a coated surface is turned into a signal by an enzyme label.
Chain of Mitogen-activated protein kinase kinase kinase kinase 1 (Q92918 whole entry, the tested form may be a part): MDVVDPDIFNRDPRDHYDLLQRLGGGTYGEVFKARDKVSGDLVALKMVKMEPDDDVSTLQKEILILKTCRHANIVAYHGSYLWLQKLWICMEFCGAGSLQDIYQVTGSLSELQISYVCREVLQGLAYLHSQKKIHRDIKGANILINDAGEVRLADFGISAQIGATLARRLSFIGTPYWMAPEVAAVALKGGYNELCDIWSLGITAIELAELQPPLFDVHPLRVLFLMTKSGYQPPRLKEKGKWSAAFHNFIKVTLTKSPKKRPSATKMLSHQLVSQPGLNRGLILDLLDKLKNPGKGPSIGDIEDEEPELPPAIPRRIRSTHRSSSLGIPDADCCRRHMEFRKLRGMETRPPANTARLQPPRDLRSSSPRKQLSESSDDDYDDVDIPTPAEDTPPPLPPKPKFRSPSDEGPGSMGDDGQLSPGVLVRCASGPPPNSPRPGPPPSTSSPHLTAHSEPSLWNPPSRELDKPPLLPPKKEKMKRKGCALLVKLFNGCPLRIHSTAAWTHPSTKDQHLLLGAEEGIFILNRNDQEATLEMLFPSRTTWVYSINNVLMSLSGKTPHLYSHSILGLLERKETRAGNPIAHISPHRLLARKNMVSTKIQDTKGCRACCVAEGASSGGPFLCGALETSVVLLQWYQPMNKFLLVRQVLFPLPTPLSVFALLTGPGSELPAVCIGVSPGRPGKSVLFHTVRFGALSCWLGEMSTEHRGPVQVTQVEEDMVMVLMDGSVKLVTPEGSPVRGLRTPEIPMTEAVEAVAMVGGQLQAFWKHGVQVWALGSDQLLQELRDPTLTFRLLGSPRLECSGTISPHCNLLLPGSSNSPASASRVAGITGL
The target of data set [3] is T1, Arginase-2, mitochondrial (Homo sapiens, UniProt P78540).
T1 sequence (P78540 whole entry): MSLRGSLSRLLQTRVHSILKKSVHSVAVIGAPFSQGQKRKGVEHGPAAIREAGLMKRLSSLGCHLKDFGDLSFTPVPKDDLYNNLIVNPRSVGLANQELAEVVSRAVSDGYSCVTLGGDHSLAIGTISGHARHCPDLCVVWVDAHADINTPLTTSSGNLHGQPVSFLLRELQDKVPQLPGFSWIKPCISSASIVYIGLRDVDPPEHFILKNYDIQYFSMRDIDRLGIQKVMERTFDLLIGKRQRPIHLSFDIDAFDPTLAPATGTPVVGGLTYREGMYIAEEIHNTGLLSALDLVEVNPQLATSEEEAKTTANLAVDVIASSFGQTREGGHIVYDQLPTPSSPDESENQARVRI
Kind of data set: Inhibition of arginase 2 (unknown origin).

Data set [4] in a line: Half life in rat. Type of data set: ADME, organism-based. The note with it: in vivo.
Data set [5] can be described thus: Inhibition of arginase (unknown origin). Details: species or system Homo sapiens.
Data set [6] deals with Programmed cell death protein 1 (Homo sapiens, UniProt Q15116). Kind of data set: Inhibition of His-tagged PD-L1 binding to PD-1-Ig (unknown origin) preincubated with PD-L1 for 15 mins followed by PD-1-Ig addition measured after 15 mins by HTRF binding assay.
Chain of Programmed cell death protein 1 (Q15116 whole entry): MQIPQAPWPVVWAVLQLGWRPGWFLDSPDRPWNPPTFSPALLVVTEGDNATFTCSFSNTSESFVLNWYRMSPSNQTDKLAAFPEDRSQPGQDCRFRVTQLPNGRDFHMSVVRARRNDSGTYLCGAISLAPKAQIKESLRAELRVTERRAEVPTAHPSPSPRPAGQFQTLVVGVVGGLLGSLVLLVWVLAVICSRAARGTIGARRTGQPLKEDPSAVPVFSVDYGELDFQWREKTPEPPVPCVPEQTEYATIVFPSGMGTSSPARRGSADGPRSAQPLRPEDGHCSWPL

The structures appear in SMILES notation. Bounds are passed on as bounds.

Chain of eIF-2-alpha kinase GCN2 (Q9P2K8 whole entry, the tested form may be a part): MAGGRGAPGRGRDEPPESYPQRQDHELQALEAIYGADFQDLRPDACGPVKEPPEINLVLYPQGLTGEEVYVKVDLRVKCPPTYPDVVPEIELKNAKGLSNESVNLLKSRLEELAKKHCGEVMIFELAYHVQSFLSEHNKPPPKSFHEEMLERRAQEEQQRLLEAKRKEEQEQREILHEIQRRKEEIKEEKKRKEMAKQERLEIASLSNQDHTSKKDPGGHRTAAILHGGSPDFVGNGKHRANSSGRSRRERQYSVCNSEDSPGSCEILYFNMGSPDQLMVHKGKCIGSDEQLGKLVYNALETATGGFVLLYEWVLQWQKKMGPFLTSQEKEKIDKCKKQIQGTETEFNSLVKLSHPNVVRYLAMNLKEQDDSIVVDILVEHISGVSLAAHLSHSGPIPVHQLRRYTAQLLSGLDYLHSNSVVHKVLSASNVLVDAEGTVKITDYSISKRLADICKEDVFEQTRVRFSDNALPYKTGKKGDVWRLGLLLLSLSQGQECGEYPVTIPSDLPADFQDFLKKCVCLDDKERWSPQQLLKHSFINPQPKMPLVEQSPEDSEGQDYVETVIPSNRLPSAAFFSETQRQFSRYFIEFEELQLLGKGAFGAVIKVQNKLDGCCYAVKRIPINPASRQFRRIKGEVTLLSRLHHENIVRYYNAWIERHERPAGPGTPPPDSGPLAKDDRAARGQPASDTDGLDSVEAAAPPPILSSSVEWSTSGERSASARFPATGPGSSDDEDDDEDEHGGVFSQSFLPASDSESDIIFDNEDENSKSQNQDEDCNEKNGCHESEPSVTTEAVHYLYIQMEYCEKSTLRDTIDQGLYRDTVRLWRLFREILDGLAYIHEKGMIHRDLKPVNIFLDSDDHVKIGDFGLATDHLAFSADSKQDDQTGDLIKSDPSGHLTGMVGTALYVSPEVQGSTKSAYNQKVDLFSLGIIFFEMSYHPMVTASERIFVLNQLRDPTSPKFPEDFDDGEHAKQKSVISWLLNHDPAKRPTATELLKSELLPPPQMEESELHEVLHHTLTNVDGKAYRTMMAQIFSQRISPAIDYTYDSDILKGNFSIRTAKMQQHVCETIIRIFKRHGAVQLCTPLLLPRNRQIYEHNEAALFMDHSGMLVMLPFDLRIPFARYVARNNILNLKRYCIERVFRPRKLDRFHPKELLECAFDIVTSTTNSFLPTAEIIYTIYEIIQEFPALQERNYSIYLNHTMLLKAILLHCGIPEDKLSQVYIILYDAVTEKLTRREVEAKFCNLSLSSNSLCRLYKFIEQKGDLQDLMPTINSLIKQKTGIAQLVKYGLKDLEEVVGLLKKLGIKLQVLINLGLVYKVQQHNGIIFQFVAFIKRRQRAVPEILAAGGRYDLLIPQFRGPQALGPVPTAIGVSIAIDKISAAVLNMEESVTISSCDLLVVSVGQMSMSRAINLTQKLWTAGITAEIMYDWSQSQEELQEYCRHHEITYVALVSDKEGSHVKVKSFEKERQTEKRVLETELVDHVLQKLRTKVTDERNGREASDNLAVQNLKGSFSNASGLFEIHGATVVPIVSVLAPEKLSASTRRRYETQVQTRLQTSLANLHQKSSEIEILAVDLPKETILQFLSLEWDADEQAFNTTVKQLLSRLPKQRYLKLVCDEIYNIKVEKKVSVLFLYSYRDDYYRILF

Broadly, the IC50 is the concentration at which inhibition is half-maximal. Regarding `CC(C)C1(O)C(=O)Nc2cc(Nc3nc4c(-c5cnn(C)c5)nccn4n3)ccc21` (stereo not given), the IC50 was in the range of 300 to 3000 nM on eIF-2-alpha kinase GCN2 and 100 to 300 nM in data set [1].

In the case of `CN1CCN(c2ccc3[nH]c(-c4c(N)c5ccsc5[nH]c4=O)nc3c2)CC1`, the IC50 in data set [2] is less than 50 nM.

`O[C@H]1CC[C@H](n2cc(Nc3ncc4nnn(-c5ccc(Cl)c(F)c5)c4n3)cn2)CC1` displayed an IC50 against eIF-2-alpha kinase GCN2 of less than 300 nM.

As a reminder, the Ki is a measure of affinity in units of concentration, obtained from inhibition or displacement. Lower therefore signals a stronger hold on the target. What is called half-life is the time needed for the level to fall by half in the phase considered. Regarding `N=C(NO)NCC[C@H](N)C(=O)O` [NOR-NOHA], the Ki in data set [3] is 51 nM. The half-life in data set [4] was in the range of 15 to 30 min.

In turn, `C[C@H](N)C(=O)N1C[C@H](CCCB(O)O)[C@](N)(C(=O)O)C1` registered an IC50 in data set [5] of 98 nM.

As for `CN1CCN(c2ccc3nc(-c4c(N)c5sccc5[nH]c4=O)[nH]c3c2)CC1`, the IC50 in data set [2] was less than 50 nM.

For the compound `COc1cc(OCc2cccc(-c3ccccc3)c2C)cc(OC)c1CNCC1CC(=O)N1` (stereo not given), the IC50 in data set [6] was less than 50 nM.

As to `C[C@H](O)[C@H](NC(=O)N[C@@H](CC(N)=O)c1nnc([C@@H](N)CO)s1)C(=O)O`, the IC50 in data set [6] is less than 50 nM.

(Values after ChEMBL document CHEMBL4184111, “Small molecule immuno-oncology therapeutic agents” (Bioorg Med Chem Lett, 2018).)
